For 41 molecules, Ki results are on record in ChEMBL document CHEMBL1142243, “Potent and selective alpha-ketoheterocycle-based inhibitors of the anandamide and oleamide catabolizing enzyme, fatty acid amide hydrolase” (J Med Chem, 2007).

The structures appear in SMILES notation. Bounds are passed on as bounds.

This assay addresses Fatty-acid amide hydrolase 1 (Rattus norvegicus) (UniProt P97612). Nature of the assay: Inhibition of rat recombinant FAAH expressed in Escherichia coli by [14C]oleamide breakdown.
Usually Ki stands for a dissociation constant, usually derived from enzyme kinetics or from competition with a known ligand. `NC(=O)c1ccc(-c2cnc(C(O)CCCCCCc3ccccc3)o2)nc1` (stereo unspecified): the Ki came to 3000 nM. With `COc1ccc(-c2cnc(C(=O)CCCCCCc3ccccc3)o2)cc1`, the Ki was 100 nM. For `O=C(CCCCCCc1ccccc1)c1ncc(-c2ccncn2)o1`, the Ki was 2.3 nM. Regarding `NC(=O)c1ccc(-c2cnc(C(=O)CCCCCCc3ccccc3)o2)cc1`, the Ki worked out at 10 nM. For the molecule `N#Cc1ccccc1-c1cnc(C(=O)CCCCCCc2ccccc2)o1`, the Ki was 130 nM. As for `Cc1ccc(-c2cnc(C(=O)CCCCCCc3ccccc3)o2)nc1`, the figure is 2.8 nM; as for `O=C(O)c1ccc(-c2cnc(C(O)CCCCCCc3ccccc3)o2)nc1` (stereo unspecified), 45000 nM; as for `O=C(O)c1cccc(-c2cnc(C(O)CCCCCCc3ccccc3)o2)n1` (stereo unspecified), greater than 10000 nM. `O=C(CCCCCCc1ccccc1)c1ncc(-c2ccc(F)cc2)o1`: the Ki worked out at 62 nM. The same measure for `O=C(CCCCCCc1ccccc1)c1ncc(-c2cccc(F)c2)o1`: 50 nM. The same measure for `COc1cccc(-c2cnc(C(=O)CCCCCCc3ccccc3)o2)c1`: 40 nM; for `Nc1ccccc1-c1cnc(C(=O)CCCCCCc2ccccc2)o1`: 750 nM; for `COC(=O)c1ccc(-c2cnc(C(=O)CCCCCCc3ccccc3)o2)cc1`: 40 nM. The same measure for `O=C(CCCCCCc1ccccc1)c1ncc(-c2cccs2)o1`: 55 nM; for `O=C(CCCCCCc1ccccc1)c1ncc(-c2cncnc2)o1`: 22 nM. Turning to `NC(=O)c1cnc(C(O)CCCCCCc2ccccc2)o1` (stereo unspecified), the Ki was 25000 nM. As for `O=C(O)c1ccc(-c2cnc(C(=O)CCCCCCc3ccccc3)o2)cc1`, the figure is 60 nM; as for `NS(=O)(=O)c1ccccc1-c1cnc(C(=O)CCCCCCc2ccccc2)o1`, 1500 nM; as for `NC(=O)c1cccc(-c2cnc(C(=O)CCCCCCc3ccccc3)o2)n1`, 1 nM. As for `NC(=O)c1cccc(-c2cnc(C(O)CCCCCCc3ccccc3)o2)n1` (stereo unspecified), the figure is 2100 nM; as for `COC(=O)c1ccc(-c2cnc(C(O)CCCCCCc3ccccc3)o2)nc1` (stereo unspecified), greater than 10000 nM.

For the molecule `O=C(CCCCCCc1ccccc1)c1ncc(-c2ncccc2C(=O)O)o1`, the Ki was greater than 50 nM.

As for `COC(=O)c1cccc(-c2cnc(C(=O)CCCCCCc3ccccc3)o2)c1`, the Ki amounted to 12 nM.

For `NS(=O)(=O)c1ccc(-c2cnc(C(=O)CCCCCCc3ccccc3)o2)cc1`, the Ki came out at 10 nM. The same measure for `COC(=O)c1cccnc1-c1cnc(C(=O)CCCCCCc2ccccc2)o1`: 130 nM; for `Nc1ccc(-c2cnc(C(=O)CCCCCCc3ccccc3)o2)cc1`: 90 nM.

`Nc1cccc(-c2cnc(C(=O)CCCCCCc3ccccc3)o2)c1`: the Ki was determined as 19 nM. For the molecule `Cc1cccc(-c2cnc(C(=O)CCCCCCc3ccccc3)o2)n1`, the Ki is 3.3 nM. The same measure for `O=C(CCCCCCc1ccccc1)c1ncc(-c2nnn[nH]2)o1`: 63 nM; for `COC(=O)c1ccccc1-c1cnc(C(=O)CCCCCCc2ccccc2)o1`: 60 nM; for `O=C(CCCCCCc1ccccc1)c1ncc(-c2ccccc2[N+](=O)[O-])o1`: 130 nM.

As for `O=C(O)c1ccnc(-c2cnc(C(=O)CCCCCCc3ccccc3)o2)c1`, the Ki was 50 nM.

Regarding `O=C(CCCCCCc1ccccc1)c1ncc(-c2ccco2)o1`, the Ki stood at 12 nM.

On to `CNC(=O)c1cnc(C(=O)CCCCCCc2ccccc2)o1`, for which the Ki stood at 7 nM. On to `Cc1cccnc1-c1cnc(C(=O)CCCCCCc2ccccc2)o1`, for which the Ki stood at 15 nM.

For `N#Cc1cnc(C(O)CCCCCCc2ccccc2)o1` (stereo unspecified), the Ki was found to be 4200 nM. On to `O=C(CCCCCCc1ccccc1)c1ncc(-c2ncccn2)o1`, for which the Ki was 5.3 nM. The same measure for `O=C(CCCCCCc1ccccc1)c1ncc(-c2ccccc2C(=O)O)o1`: 6000 nM; for `O=C(CCCCCCc1ccccc1)c1ncc(-c2cccc([N+](=O)[O-])c2)o1`: 28 nM; for `O=C(CCCCCCc1ccccc1)c1ncc(-c2cnc(C(=O)CCCCCCc3ccccc3)o2)o1`: 3500 nM.

For `COC(=O)c1ccc(-c2cnc(C(=O)CCCCCCc3ccccc3)o2)nc1`, the inhibition constant (Ki) turned out to be 3.5 nM.
